# Reference: patent US20250243180A1, “TARGETED PROTEIN DEGRADATION” (Monte Rosa Therapeutics AG, priority 2023, published 2025)
# Like-named read-outs stand apart in the source and are kept apart here.
# Legend:
# [1] = target: CRBN-DDB1 (Homo sapiens (Human), UniProt Q96SW2); assay: Compound binding to CRBN by HTRF assay
# Method: Compound activity was monitored in a Homogenous Time-Resolved Fluorescence (HTRF) assay using 1-[5-({2-[2-(2-{[2-(2,6-dioxopiperidin-3-yl)-1,3-dioxo-2,3-dihydro-1H-isoindol-4-yl]oxy}acetamido)ethoxy]ethyl}carbamoyl)pentyl]-3,3-dimethyl-2-[(1E,3E)-5-[(2E)-1,3,3-trimethyl-5-sulfo-2,3-dihydro-1H-indol-2-ylidene]penta-1,3-dien-1-yl]-3H-indol-1-ium-5-sulfonate as a fluorescent probe. Biochemical assays were conducted in Greiner white 384 well HiBase plates (Cat. No 784075-25) in 20 μL total volume. A one pot detection solution of CRBN-DDB1 (2.5 nM), Anti-His Terbium Cryptate Gold (1×, PerkinElmer Cat. #: 61HI2TLB), and Cy5-Thalidomide (100 nM, Tenova Cat.: T52461) was prepared in 20 mM HEPES, 20 mM NaCl, 0.2 mM TCEP, 0.2 mM EDTA, and 0.005% Tween20 was dispensed to each assay plate. Compounds were stored in dry, ambient temperatures at 10 mM. An 11-point, 1:3 dilution series was prepared from 10 mM stock concentrations in Echo-compatible LDV plates. 10 nL of each compound dilution series was dispensed into assays wells using an Echo 650 (Labcyte Inc. USA). 20 nL of 10 mM Lenalidomide was transferred into the active-control wells for the assay and 20 nL of DMSO was transferred into the neutral-control wells. The assay was then allowed to incubate for 30 min at ambient temperature after transferring compound. Plate measurements were taken on a Pherastar FSX (BMG Labtech, Germany) using the HTRF Red filter (Ex. 337 nm, em1: 620 nm, em2: 665 nm) (Flashes: 50, Integration time: 60-400 us, Z-height: 10 mm, Ratio-multiplier: 10,000). The HTRF signal was then subsequently normalized to the neutral and active controls. Analysis and EC50 values were derived using KNIME analytics (KNIME Zurich) transformation and fitting within Collaborative Drug Discovery (Collaborative Drug Discovery USA). Ki was derived from the geometric mean of the EC50 values using the Cheng-Prustoff transformation.
# [2] = target: NEK7 (Homo sapiens (Human), UniProt Q8TDX7+Q96SW2); assay: NEK7 NanoBiT degradation assay in Cal51 NEK7 NanoBiT cell line; format: cell-based; conditions: Cal51 NEK7 NanoBiT cells, 24 hours; for Dmax: CAL-51
# Chain of NEK7 (Q8TDX7 whole entry): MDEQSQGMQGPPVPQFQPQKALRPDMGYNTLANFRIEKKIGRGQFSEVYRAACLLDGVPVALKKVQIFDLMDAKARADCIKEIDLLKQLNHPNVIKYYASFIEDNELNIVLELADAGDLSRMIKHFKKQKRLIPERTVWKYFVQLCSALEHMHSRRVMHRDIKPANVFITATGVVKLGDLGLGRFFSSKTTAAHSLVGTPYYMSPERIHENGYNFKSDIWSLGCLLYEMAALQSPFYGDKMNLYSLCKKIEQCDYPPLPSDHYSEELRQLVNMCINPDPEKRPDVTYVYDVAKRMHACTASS
# Chain of NEK7 (Q96SW2 whole entry): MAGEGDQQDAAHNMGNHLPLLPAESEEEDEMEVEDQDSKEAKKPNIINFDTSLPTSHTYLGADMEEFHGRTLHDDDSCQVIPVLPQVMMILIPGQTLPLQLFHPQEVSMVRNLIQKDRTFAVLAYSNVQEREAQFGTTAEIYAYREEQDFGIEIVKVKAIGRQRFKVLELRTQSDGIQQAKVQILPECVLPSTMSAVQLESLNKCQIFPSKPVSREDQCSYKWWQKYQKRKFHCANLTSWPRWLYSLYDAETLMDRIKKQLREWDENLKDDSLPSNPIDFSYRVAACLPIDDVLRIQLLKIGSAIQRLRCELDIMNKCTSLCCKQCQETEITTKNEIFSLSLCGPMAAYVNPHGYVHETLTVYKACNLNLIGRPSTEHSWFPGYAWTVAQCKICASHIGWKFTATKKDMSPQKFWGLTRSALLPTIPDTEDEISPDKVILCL
# Chain of NEK7 (Q16531 2-1140 partner): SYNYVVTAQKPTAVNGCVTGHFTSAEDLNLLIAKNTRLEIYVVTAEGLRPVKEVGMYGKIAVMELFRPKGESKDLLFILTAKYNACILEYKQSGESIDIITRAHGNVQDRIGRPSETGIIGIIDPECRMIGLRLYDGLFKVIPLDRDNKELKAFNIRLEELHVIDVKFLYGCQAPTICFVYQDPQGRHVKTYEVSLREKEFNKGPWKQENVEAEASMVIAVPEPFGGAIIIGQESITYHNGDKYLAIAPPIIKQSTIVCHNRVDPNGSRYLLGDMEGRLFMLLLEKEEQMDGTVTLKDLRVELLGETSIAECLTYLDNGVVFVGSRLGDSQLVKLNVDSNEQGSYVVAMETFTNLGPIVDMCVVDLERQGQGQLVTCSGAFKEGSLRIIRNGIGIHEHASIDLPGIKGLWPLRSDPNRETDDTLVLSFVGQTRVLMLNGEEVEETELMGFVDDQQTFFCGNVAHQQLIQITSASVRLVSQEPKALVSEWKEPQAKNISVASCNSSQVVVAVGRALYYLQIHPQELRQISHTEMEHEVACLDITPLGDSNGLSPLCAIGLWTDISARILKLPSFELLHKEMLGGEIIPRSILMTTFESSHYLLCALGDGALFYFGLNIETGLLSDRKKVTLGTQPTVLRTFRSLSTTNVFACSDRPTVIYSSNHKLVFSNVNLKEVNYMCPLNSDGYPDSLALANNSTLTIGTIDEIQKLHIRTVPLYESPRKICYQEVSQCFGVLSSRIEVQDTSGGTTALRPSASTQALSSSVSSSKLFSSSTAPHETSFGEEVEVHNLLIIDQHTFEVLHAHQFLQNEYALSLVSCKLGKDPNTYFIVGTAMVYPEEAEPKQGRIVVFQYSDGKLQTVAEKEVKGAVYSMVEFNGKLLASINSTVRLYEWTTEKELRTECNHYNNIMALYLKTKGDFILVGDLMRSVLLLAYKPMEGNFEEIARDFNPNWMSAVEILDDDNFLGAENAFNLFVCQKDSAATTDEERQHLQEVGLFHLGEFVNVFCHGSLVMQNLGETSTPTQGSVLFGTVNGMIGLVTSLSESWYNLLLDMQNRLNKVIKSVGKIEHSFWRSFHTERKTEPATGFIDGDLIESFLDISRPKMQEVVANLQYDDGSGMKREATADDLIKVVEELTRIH
# Method: Cal51 NEK7 NanoBiT cell line was generated via CRISPR Knock-In of the HiBiT tag in NEK7 gene and stable infection with a lentivirus carrying LgBiT protein. The cell line was generated in house. For the experiment, cells were plated in 384-well white flat bottom plates (Corning, 3570BC) at 2500 cells per well using Multiflo (BioTek/Agilent) and in 25 μl volume in DMEM experimental medium: DMEM (DMEM, high glucose, HEPES, no phenol red (ThermoFisher Scientific, 21063029) supplemented with 10% FBS (Corning, 35-075-CV), 1% Penicillin/Streptomycin ((ThermoFisher Scientific, 15140-122), and 1% Endurazine (Nano-Glo Endurazine Live Cell Substrate (Promega, N2571)). Cells were incubated for 16 hours at 37° C., 5% CO2 before compound addition. For dose response determination, 2.5 nL of a compound at different concentrations (stock compound concentration range: 10 mM to 0.5 μM, final concentration range inside cell plate: 1 μM to 0.05 nM) were dispensed into the plate using an Echo® 650 liquid handling device (Backman Coulter/Labcyte). Cells were incubated at 37° C., 5% CO2 for 24 hours and then signal was read on a Pherastar FSX using “LUM plus” optic module with 4095 gain and measurement interval time 0.2 seconds.
# Analysis was performed in Genedata Screener (Genedata, Basel, CH). Luminescence response (R) was calculated by the formula: response=100*(S−N)/(P−N) where S is the signal of the well, N and P the mean negative and positive control values respectively of the same plate. The luminescence response was then fitted in Genedata using a 4-parameter antagonist logistic fit (hill slope unconstrained, EC50>0, top/bottom unconstrained).
# [3] = NEK7 degradation, read-out: NanoBiT Dmax
# [4] = NEK7 degradation, read-out: NanoBiT DC50
# Chain of CRBN-DDB1 (Q96SW2 whole entry): as the sequence (Q96SW2 whole entry) above
# Chain of CRBN-DDB1 (Q16531 whole entry partner): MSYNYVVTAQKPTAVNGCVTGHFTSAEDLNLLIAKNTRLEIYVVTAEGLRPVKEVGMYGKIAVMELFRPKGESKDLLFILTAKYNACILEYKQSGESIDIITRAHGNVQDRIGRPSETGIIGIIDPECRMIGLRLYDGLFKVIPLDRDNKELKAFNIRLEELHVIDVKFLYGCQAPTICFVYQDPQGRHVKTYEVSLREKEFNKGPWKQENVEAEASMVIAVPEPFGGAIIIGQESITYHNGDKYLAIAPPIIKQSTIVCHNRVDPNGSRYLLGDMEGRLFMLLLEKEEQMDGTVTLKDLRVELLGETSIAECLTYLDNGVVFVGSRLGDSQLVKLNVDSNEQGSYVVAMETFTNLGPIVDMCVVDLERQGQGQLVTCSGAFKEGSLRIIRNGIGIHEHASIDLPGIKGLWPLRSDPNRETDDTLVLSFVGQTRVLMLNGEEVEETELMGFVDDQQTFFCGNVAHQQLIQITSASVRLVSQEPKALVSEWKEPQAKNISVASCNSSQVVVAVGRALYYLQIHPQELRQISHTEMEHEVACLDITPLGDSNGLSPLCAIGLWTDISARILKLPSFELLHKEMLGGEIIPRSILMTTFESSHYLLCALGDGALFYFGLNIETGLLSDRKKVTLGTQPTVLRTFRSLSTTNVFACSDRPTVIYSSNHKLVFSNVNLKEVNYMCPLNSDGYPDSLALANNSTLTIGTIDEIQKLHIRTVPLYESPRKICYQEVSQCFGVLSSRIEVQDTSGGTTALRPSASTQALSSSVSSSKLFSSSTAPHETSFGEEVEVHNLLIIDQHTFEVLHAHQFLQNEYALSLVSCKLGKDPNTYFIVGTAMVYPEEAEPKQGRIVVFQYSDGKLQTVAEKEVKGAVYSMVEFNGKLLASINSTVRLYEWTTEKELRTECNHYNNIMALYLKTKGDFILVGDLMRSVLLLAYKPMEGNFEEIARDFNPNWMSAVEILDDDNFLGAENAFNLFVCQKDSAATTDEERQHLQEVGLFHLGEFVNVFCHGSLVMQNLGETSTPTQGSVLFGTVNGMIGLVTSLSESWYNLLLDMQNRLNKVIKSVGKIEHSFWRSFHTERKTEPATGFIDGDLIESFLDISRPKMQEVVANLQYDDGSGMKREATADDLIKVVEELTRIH
SMILES,EC50 [1] [nM],"EC50 ([1]; HTRF class, Cereblon binding) [nM]",Dmax ([2]; read-out: NEK7 NanoBiT Dmax) [%],"Dmax [2, 3] [%]",DC50 ([2]; read-out: NEK7 NanoBiT DC50) [nM],"DC50 [2, 4] [nM]"
CC(C)(C(=O)NCc1cc(Cl)c(C2CCC(=O)NC2=O)c(Cl)c1)c1cnc(C#N)nc1 (stereo not drawn) [Compound 13],200,100 to 1000,73,50 to 75,56,≤ 100
"CC(C)(C(=O)NCc1cc(Cl)c(C2CCC(=O)NC2=O)c(Cl)c1)c1ccc(C#N)cn1 (stereo not drawn) [Compound 15, 2-(5-cyanopyridin-2-yl)-N-(3,5-dichloro-4-(2,6-dioxopiperidin-3-yl)benzyl)-2-methylpropanamide]",120,100 to 1000,95,> 75,4,≤ 100
CC(C)(C(=O)NCc1ccc(C2CCC(=O)NC2=O)c(Cl)c1)c1cccc(C#N)c1 (stereo not drawn) [Compound 18],540,100 to 1000,61,50 to 75,206,100 to 1000
"CC(C)(C(=O)NCc1cc(Cl)c(C2CCC(=O)NC2=O)c(Cl)c1)c1ccncn1 (stereo not drawn) [Compound 19, N-(3,5-dichloro-4-(2,6-dioxopiperidin-3-yl)benzyl)-2-methyl-2-(pyrimidin-4-yl)propanamide]",140,100 to 1000,84,> 75,23,≤ 100
CC(C)(C(=O)NCc1cc(Cl)c(C2CCC(=O)NC2=O)c(Cl)c1)c1ccccn1 (stereo not drawn) [Compound 20],70,≤ 100,86,> 75,13,≤ 100
"CC(C)(C(=O)NCc1cc(Cl)c(C2CCC(=O)NC2=O)c(Cl)c1)c1cccc(C#N)c1 (stereo not drawn) [Compound 21, 2-(3-cyanophenyl)-N-(3,5-dichloro-4-(2,6-dioxopiperidin-3-yl)benzyl)-2-methylpropanamide]",90,≤ 100,94,> 75,3,≤ 100
CC(C)(C(=O)NCc1cc(Cl)c(C2CCC(=O)NC2=O)c(Cl)c1)c1ccc(F)cn1 (stereo not drawn) [Compound 22],120,100 to 1000,93,> 75,4,≤ 100
CC(C)(C(=O)NCc1cc(Cl)c(C2CCC(=O)NC2=O)c(Cl)c1)c1ccn(CC(F)(F)F)c(=O)c1 (stereo not drawn) [Compound 23],220,100 to 1000,88,> 75,22,≤ 100
CC(C)(C(=O)NCc1ccc(C2CCC(=O)NC2=O)c(Cl)c1)c1ccccc1F (stereo not drawn) [Compound 24],320,100 to 1000,74,50 to 75,76,≤ 100
"CC(C)(C(=O)NCc1ccc(C2CCC(=O)NC2=O)c(Cl)c1)c1cccc(F)c1 (stereo not drawn) [Compound 25, N-(3-chloro-4-(2,6-dioxopiperidin-3-yl)benzyl)-2-(3-fluorophenyl)-2-methylpropanamide]",290,100 to 1000,87,> 75,23,≤ 100
CC(C)(C(=O)NCc1cc(Cl)c(C2CCC(=O)NC2=O)c(Cl)c1)c1ccccc1F (stereo not drawn) [Compound 26],70,≤ 100,96,> 75,2,≤ 100
